Each block holds one molecule with its values, some of them ahead of it.
Columns and labels:
[1] = tested on: citrullinated histone H3 in dHL-60 cells; test: Histone H3 citrullination, western blot; assay type: cell-based, human; conditions: time-dependent
Experimental: (§1) dHL-60 cells were lysed on ice for 30 minutes in RIPA buffer composed of 50 mM Tris-HCl (pH 7.4), 150 mM NaCl, 2 mM EDTA, 1% NP-40, 0.5% sodium deoxycholate, 0.1% SDS, 1 mM phenylmethylsulfonyl fluoride (PMSF), 10 mM sodium fluoride, 2 mM sodium pyrophosphate, 10 mM β-glycerophosphate, 10 mM sodium orthovanadate. The lysates were centrifuged at 13,000 rpm for 20 minutes at 4° C. and protein concentrations were determined using the Bradford assay (Bio-Rad Laboratories). Denatured samples were mixed with a 5×SDS-PAGE loading buffer and heated to 100° C. for 15 min. The samples were separated on the 10% of SDS-PAGE gel and transferred to polyvinylidene difluoride (PVDF) membranes (Merck Millipore Corporation, MA, USA). Membranes were blocked with 5% non-fat milk in PBS (10 mM Tris-HCl, pH7.5, 150 mM NaCl) for 1 h and probed with primary antibodies against histone H3 (citrulline R2+R8+R17) from abcam (USA) and β-actin from cell signaling (USA) for overnight at 4° C. The blots were washed and incubated with appropriate secondary antibodies and visualized using Pierce™ ECL Western Blotting Substrate (Thermo Scientific).

[2] = tested on: intracellular calcium in dHL-60 cells; test: Fluo-4 calcium assay; assay type: cell-based, human
Experimental: Human leukemia line (HL-60) cells were differentiated (dHL-60) to neutrophil-like cells in the culture medium with the addition of 1.3% DMSO (Sigma) for 5 days in a humidified atmosphere at 37° C. without changing the medium. dHL-60 cells (2×10^5 cells/mL) were loaded with 5 μM fluo-4 AM for 45 minutes and washed three times with warmed modified (37° C.) HBSS buffer (137.93 mM NaCl, 5.33 mM KCl, 2 mM CaCl2), 1 mM MgSO4, 2.38 mM HEPES, 5.5 mM glucose, pH to 7.4). The cells were seeded on black-walled 96-well plates and then treated with vehicle (0.1% DMSO), ionomycin (5 μM; positive control) or PLAG (100 μg/mL) just before measurement. Baseline fluorescence was measured before treatment, and fluorescence was read every 20 s for 700 s using an excitation wavelength of 494 nm, an emission wavelength of 516 nm in a FlexStation 3 microplate reader (Molecular Devices). Fluorescence values were reported as F/Fo according to the calculation: [ΔF=(494 nm)f/(516 nm)f−(494 nm)0/(516 nm)0]. For studies in 0 mM external calcium, the cells were loaded as mentioned earlier. After being loaded, the cells were washed four times with calcium-free HBSS. The remainder of the study was carried out in calcium-free HBSS.
(§2) HL-60 cells were differentiated (dHL-60) to neutrophil-like cells in the culture medium with the addition of 1.3% DMSO (Sigma) for 5 days in a humidified atmosphere at 37° C. without changing the medium. dHL-60 cells (2×10^5 cells/mL) were loaded with 5 μM fluo-4 AM for 45 minutes and washed three times with warmed modified (37° C.) HBSS buffer (137.93 mM NaCl, 5.33 mM KCl, 2 mM CaCl2, 1 mM MgSO4, 2.38 mM HEPES, 5.5 mM glucose, pH to 7.4). […] Baseline fluorescence was measured before treatment, and fluorescence was read every 20 seconds for 700 seconds using an excitation wavelength of 494 nm, an emission wavelength of 516 nm in a FlexStation 3 microplate reader (Molecular Devices). Fluorescence values were reported as F/Fo according to the calculation: [ΔF=(494 nm)f/(516 nm)f−(494 nm)0/(516 nm)0]. […]
as §2, with “s” for “seconds”, “Devices).” for “Devices). Fluorescence values were reported as F/Fo according to the calculation: [ΔF=(494 nm)f/(516 nm)f−(494 nm)0/(516 nm)0].”

[3] = tested on: LPS-induced acute lung injury; test: LPS-induced acute lung injury (ALI) in mice; assay type: in vivo; conditions: LPS-treated mice, co-treatment
[4] = tested on: ERK, p38 MAPK, JNK in THP-1 cells; test: Gemcitabine-induced phosphorylation of ERK, p38 MAPK, JNK, western blot; assay type: cell-based, human; conditions: inhibitor of NADPH oxidase
Experimental: as §1, with “Total” for “dHL-60”, “orthovanadate. Membrane-and-cytoplasmic protein fractions of cultured cells were obtained with Mem-PER Plus Membrane Protein Extraction Kit (Thermo Scientific, MA, USA) according to the manufacturer's instructions.” for “orthovanadate.”, “ERK1/2, phospho-ERK1/2, P38, phospho-P38, SAPK/JNK, phospho-SAPK/JNK, Na, K-ATPase, α-Tubulin,” for “histone H3 (citrulline R2+R8+R17) from abcam (USA)”, “Cell Signaling Technology (MA, USA), Rac1 from Merck Millipore Corporation), p47phox and phospho-p47phox from Invitrogen, adenosine receptor A1 from Abcam, β arrestin-1 from Santa Cruz Technology” for “cell signaling (USA)”, “Pierce” for “Pierce™”

[5] = tested on: gemcitabine-induced neutrophil extravasation; test: Gemcitabine-induced neutropenia mice model; assay type: in vivo
Experimental: Male BALB/c mice were randomly divided into 3 groups; normal control group (n=5), gemcitabine only group (n=5) and gemcitabine with PLAG group (n=5). The mice were intraperitoneally (i.p.) injected with 50 mg/kg gemcitabine to induce neutropenia. PLAG was diluted with phosphate-buffered saline (PBS) and then orally administrated at a dose of 50 or 250 mg/kg/day. The normal control group was administered PBS only during the experiment. The whole blood was collected from the orbital sinuses using capillary tubes (Kimble Chase Life Science and Research Products LLC, FL, USA) and collection tubes containing K3E-K3EDTA (Greiner Bio-One International, Germany). To obtain peritoneal cells, 5 ml of cold PBS was injected to the left side of the peritoneal wall using a 5 mL syringe, and the fluid was aspirated from the peritoneum. The collected cells were counted by complete blood count (CBC) analysis using Mindray BC-5300 auto-hematology analyzer (Shenzhen Mindray Biomedical Electronics, China). To establish a 4T1 tumor-bearing mice model, the murine 4T1 mammary carcinoma cells (1×10^5) were subcutaneously injected on the right side of the abdomen. On the 10th day after tumor injection, the mice were intraperitoneally (i.p.) injected with 50 mg/kg gemcitabine, and the next day the whole blood was collected from the orbital sinuses as mentioned above before sacrificing the animals to obtain different organs of the body for RT-PCR.
PLAG inhibits gemcitabine-induced neutrophil extravasation into the peritoneum by down-regulating the expression of adhesion molecules in normal BALB/c mice. Male BALB/c mice of 8-10 weeks of age were orally administrated with 50 or 250 mg/kg of PLAG and then were intraperitoneally injected with 50 mg/kg gemcitabine. After 24 h, blood samples were collected by retro-orbital bleeding, and the number of blood neutrophils was determined by CBC analysis. Each group contains five mice. The population of blood neutrophils was analyzed by flow cytometry. Red cell-lysed whole blood was stained with FITC-conjugated anti-Ly6G and PE-Cy7-conjugated anti-CD11b antibodies to determine the circulating neutrophil population. Ly6G+/CD11b+ cells were further stained with APC-conjugated anti-L-selectin and APC-conjugated anti-LFA-1 antibodies and were analyzed by flow cytometry to determine the expression of adhesion molecules.
The mice were intraperitoneally (i.p.) injected with 50 mg/kg gemcitabine to induce neutropenia. PLAG was diluted with phosphate-buffered saline (PBS) and then orally administrated at a dose of 50 or 250 mg/kg/day. The normal control group was administered PBS only during the experiment. At 15 h after gemcitabine treatment, the whole blood was collected from the orbital sinuses using capillary tubes (Kimble Chase Life Science and Research Products LLC, FL, USA) and collection tubes containing K3E-K3EDTA (Greiner Bio-One International, Kremsmünster, Austria). To obtain peritoneal cells, 5 ml of cold PBS was injected to the left side of the peritoneal wall using a 5 mL syringe, and the fluid was aspirated from the peritoneum. The collected cells were counted by complete blood count (CBC) analysis using Mindray BC-5300 auto-hematology analyzer (Shenzhen Mindray Biomedical Electronics, Guangdong Sheng, China).
To establish a 4T1 tumor-bearing mice model, the murine 4T1 mammary carcinoma cells (1×105) were subcutaneously injected on the right side of the abdomen. On the 10th day after tumor injection, the mice were intraperitoneally (i.p.) injected with 50 mg/kg gemcitabine, and the next day the whole blood was collected from the orbital sinuses as mentioned above before sacrificing the animals to obtain different organs of the body.

[6] = normal BALB/c mice, 15 hours after gemcitabine 50 mg/kg i.p.

SMILES: C[C@H](CCC(=O)O)C[C@H](C)C[C@H](C)C(=O)/C=C(\O)[C@H](C)C[C@H](C)C/C=C/[C@@H](C)[C@@H](O)[C@@H](C)[C@@H](O)C[C@@H]1CC[C@@](C)([C@H]2CC[C@@](C)([C@@H](C)O)O2)O1 [ionomycin, reference compound]
histone H3 citrullination [1]: induced | cytosolic calcium of dHL-60 cells ([2]; PLAG 100 μg/mL, ionomycin 5 μM): increased

SMILES: CCCCC/C=C\C/C=C\CCCCCCCC(=O)O [LA, linoleic acid, reference compound]
number of neutrophils in BALF [3]: no effect

SMILES: CCCCCC=CCC=CCCCCCCCC(=O)OC(CO)CO [HLH, hydroxyl linoleic hydroxyl glycerol, reference compound]
number of neutrophils in BALF [3]: no effect

SMILES: c1ccc2c(c1)[I+]c1ccccc1-2 [DPI, diphenyleneiodonium, reference compound]
gemcitabine-induced phosphorylation of ERK, p38 MAPK and JNK [4]: dose-dependently decreased

SMILES: CCCCCCCCCCCCCCCC(=O)O [PA, palmitic acid, reference compound]
number of neutrophils in BALF [3]: no effect

SMILES: COc1ccc2c(c1)CC[C@@H]1[C@@H]2CC[C@]2(C)[C@@H](NCCCCCCN3C(=O)C=CC3=O)CC[C@@H]12 [U73122, reference compound]
PLAG-induced intracellular calcium increase ([2]; PLC inhibitor, dose-dependent): inhibited

mRNA expression of MIP-2 in tissues ([5]; 4T1 tumor-bearing mice, gemcitabine 50 mg/kg i.p.): increases | migration of circulating neutrophils into the peritoneal cavity ([5]; 4T1 tumor-bearing mice, one day after gemcitabine 50 mg/kg i.p.): induced the migration | circulating neutrophils [5, 6]: significant reduction | neutrophils in the peritoneal cavity [5, 6]: increase
SMILES: Nc1ccn([C@@H]2O[C@H](CO)[C@@H](O)C2(F)F)c(=O)n1 [gemcitabine, reference compound]
